Data: PubChem BioAssay AID1863 (Southern Research Specialized Biocontainment Screening …, 2009)
Several values for one entry are separate records, joined by “and”; a condition that tells them apart may be missing. Equal entries are not always repeated.

The compounds below were run on S. Typhimurium PhoP-regulated promoter GFP reporter, 4 h (assay: PhoP-dependent GFP reporter repression – Salmonella Typhimurium, primary screen (AID 1863)).

Point of comparison: `O=S1(=O)N=C(N/N=C/c2ccccn2)c2ccccc21`, IC50 34.5 µM. Against it:
- Oc1ccc(CN2CCc3ccccc3C2)c2cccnc12 — within 1.5-fold, 42.8 µM
- Nc1[nH]c(=O)ncc1F — within 1.5-fold, 29.2 µM
- CCn1cc(C(=O)NCCCO)c(=O)c2cc(F)c(N3CCN(C)CC3)cc21 — within 1.5-fold, 25.5 µM
- CC(=O)Oc1cc2cccc(OC(C)=O)c(=O)c2c(OC(C)=O)c1OC(C)=O — within 1.5-fold, 46.7 µM
- O=C(C[n+]1cc(-c2ccc(Cl)c(Cl)c2)n2c1CCC2)N1c2ccccc2Sc2ccccc21 — 2.1-fold higher, 72.7 µM
- O=[N+]([O-])c1cc(CN2CCOCC2)c2cccnc2c1O — within 1.5-fold, 44.2 µM
- O=C(NC(=S)NNC(=O)c1ccccc1O)c1ccco1 — 2.1-fold higher, 71.5 µM
- COc1c(N2CCN(C(=S)Nc3ccc(F)cc3)C(C)C2)c(F)cc2c(=O)c(C(=O)O)cn(C3CC3)c12 (stereo not given) — 4.6-fold lower, 7.48 µM
- c1ccc(-c2cccc(-c3ccccn3)n2)nc1 — within 1.5-fold, 43.1 µM
- Cc1ccc(Nc2cc(C)c3c(O)cccc3n2)cc1C — 2.2-fold higher, 75.3 µM
- CCN1/C(=C/C=C/c2sc3ccccc3[n+]2CC)Sc2ccccc21 — within 1.5-fold, 33.5 µM
- CCC(C)(C)c1ccc(OCCCC[n+]2ccc(C)cc2)c(C(C)(C)CC)c1 — 1.9-fold higher, 66.9 µM
- N=c1n(Cc2ccccc2)c2ccccc2n1CC(O)COc1ccc(Cl)cc1Cl (stereo not given) — within 1.5-fold, 35.1 µM
- Cc1cc(C)c(NC(=O)c2cn3c4c(c(N5CCN(C)CC5)c(F)cc4c2=O)OCC3C)c(C)c1 (stereo not given) — 1.7-fold lower, 20.3 µM
- NC1=NC[C@H](Cc2ccc(O)cc2)N1CCCCC1CCCCC1 — 1.7-fold higher, 57.2 µM
- Fc1ccc(Nc2nc(NCc3ccco3)c3ccccc3n2)cc1 — within 1.5-fold, 37.9 µM
- CCCCCCCCCCOC(=O)Cn1c(COc2ccc(Cl)cc2)[n+](C)c2ccccc21 — 1.8-fold lower, 19.5 µM
- O=C1c2ccccc2NC(c2ccc(-c3ccc(Br)cc3)o2)N1O (stereo not given) — 3.1-fold higher, 106 µM
- Cc1ccccc1NC(=O)CCC(=O)N/N=C/c1cc([N+](=O)[O-])ccc1O — 2.8-fold higher, 95.7 µM
- CN(O)/C=c1/ccc2c(n1)C(=O)C=CC=2 — 3.3-fold higher, 113 µM
- COc1ccc(/C=N/Nc2cc(C)nc3ccccc23)cc1 — within 1.5-fold, 38.5 µM
- CCn1cc(C(=O)O)c(=O)c2cc(F)c(N3CCNCC3)cc21 — 68-fold lower, 0.51 µM
- O=[N+]([O-])c1cc(F)c2cccnc2c1O — 2.9-fold lower, 12 µM
- CNC(=S)N1CCN(c2c(F)cc3c(=O)c(C(=O)O)cn(C4CC4)c3c2OC)CC1C (stereo not given) — 2-fold lower, 17.6 µM
- CCCCCCCNC(=O)C1(CC2CC(c3ccc(Cl)cc3)=NO2)CCNCC1 (stereo not given) — 1.6-fold higher, 54.5 µM
- Cc1ccc(C(c2cc(Cl)c3cccnc3c2O)N2CCN(C)CC2)cc1 (stereo not given) — 1.6-fold higher, 55.5 µM
- Cc1c2ccncc2c(C)c2c1[nH]c1ccccc12 — within 1.5-fold, 26.3 µM
- COc1cc(/C=C/[N+](=O)[O-])ccc1O — 2.4-fold higher, 82.5 µM
- CCCCCCCCCCCCCCCCn1cc[n+](CC(C)=O)c1 — within 1.5-fold, 31.8 µM
- Oc1c(I)cc(Cl)c2cccnc12 — 1.9-fold lower, 17.9 µM
- COc1cc(Cc2cc(N)nc(N)n2)cc(OC)c1OC — 6.9-fold lower, 4.97 µM
- CO[C@H]1C=CO[C@@]2(C)Oc3c(C)c(O)c4c(O)c(c(C=NN5CCN(C)CC5)c(O)c4c3C2=O)NC(=O)C(C)=CC=C[C@H](C)[C@H](O)[C@@H](C)[C@@H](O)[C@@H](C)[C@H](OC(C)=O)[C@@H]1C — 5.5-fold lower, 6.31 µM
- CCCCCCOC(=O)C[N+](C)(C)CCOC1CC2CCC1(C)C2(C)C (stereo not given) — within 1.5-fold, 40.1 µM
- CCc1ccc(S(=O)(=O)/N=C2/C=C(Sc3ncn[nH]3)C(=O)c3ccccc32)cc1 — 2.9-fold higher, 99.4 µM
- CCn1cc(C(=O)O)c(=O)c2ccc(C)nc21 — 2.5-fold higher, 85.6 µM
- O=C1C(SCCO)=C(SCCO)C(=O)c2ccccc21 — 2.1-fold higher, 70.9 µM
- NC1=NC[C@H](Cc2ccccc2)N1CCCCC1CCCCC1 — within 1.5-fold, 47.7 µM
- CCCCCN=C(N)N/N=C/c1c[nH]c2ccc(OC)cc12 — within 1.5-fold, 51.2 µM
- CCCCNC(=O)c1cn(CC)c2cc(N3CCN(C)CC3)c(F)cc2c1=O — within 1.5-fold, 23.7 µM
- Nc1cccc2nc3ccccc3cc12 — 1.7-fold higher, 58.2 µM
- CCn1cc(C(=O)O)c(=O)c2cc(F)c(N3CCN(C(=S)NC(=O)c4ccccc4F)CC3)cc21 — within 1.5-fold, 28.5 µM
- CNc1nc(NCc2ccccc2)c2ccccc2n1 — 3.9-fold higher, 136 µM
- Nc1nc2ccccc2n1CCOc1ccccc1Cl — 4-fold higher, 138 µM
- CCCOc1ccc(C(=O)C(CCC(CNCC)C(=O)c2ccc(OCCC)cc2)CNCC)cc1 (stereo not given) — 2.7-fold higher, 94.6 µM
- Nc1cc2nsnc2cc1Br — 3-fold higher, 105 µM
- CC(C(=O)NC1CCS(=O)(=O)C1)N1C(=O)/C(=C/c2ccc(Cl)cc2)SC1=S (stereo not given) — within 1.5-fold, 39.9 µM
- CCOC(=O)C1=Nc2ccccc2C1=[N+]=[N-] — within 1.5-fold, 32.4 µM
- O=C(N/N=C/c1sc2ccccc2c1O)c1cccc2ccccc12 — within 1.5-fold, 42.4 µM
- CN1CCN(c2c(F)cc3c(=O)c(C(=O)O)cn4c3c2OCN4C)CC1 — 130-fold lower, 0.26 µM
- Clc1ccc(OCCn2ccnc2)c2ccccc12 — 2.5-fold higher, 85.6 µM
- Oc1c(C(Nc2ccccn2)c2ccccn2)ccc2cccnc12 (stereo not given) — 2.7-fold higher, 91.6 µM
- CCn1cc(C(=O)O)c(=O)c2cc(F)c(N3CCN(C(=O)Nc4ccccc4)CC3)cc21 — within 1.5-fold, 32.1 µM
- C[CH2][Hg][S]c1ccccc1C(=O)O — 3.9-fold higher, 136 µM
- O=C(N/N=C/c1cc2c3c(c1O)CCCN3CCC2)c1ccccc1O — 4-fold higher, 138 µM
- COc1c(N2CCN(C(=S)NC3CC4CCC3C4)C(C)C2)c(F)cc2c(=O)c(C(=O)O)cn(C3CC3)c12 (stereo not given) — 1.6-fold lower, 22.2 µM
- Nc1ccc2c(c1)C(=O)C(=O)c1ccccc1-2 — 2.9-fold lower, 11.9 µM
- Nc1nonc1-n1nnc(C(=O)N/N=C/c2cc(Br)ccc2O)c1CSC1=NCCS1 — 3.5-fold higher, 122 µM
- CN(C)CCCNc1cc(C(C)(C)C)nc2c(-c3ccccc3)cnn12 — 2-fold higher, 68.2 µM
- CC1CCc2c(N3CCC(O)CC3)c(F)cc3c(=O)c(C(=O)O)cn1c23 (stereo not given) — 5.5-fold lower, 6.24 µM
- CCCNC1=C(C)C(=O)C2=C(C1=O)C(COC(N)=O)[C@]1(OC)C3NC3CN21 (stereo not given in full) — within 1.5-fold, 23.8 µM
- NC1=NC[C@H](c2ccccc2)N1CCCCC1CCCCC1 — within 1.5-fold, 40.6 µM
- CC(C)(C)/C(O)=C/c1nc2cc(Cl)ccc2oc1=O — 2.9-fold higher, 99.5 µM
- CC(C)COc1ccc(Cc2cnc(N)nc2N)cc1 — 2.8-fold higher, 96.7 µM
- C(=N\Nc1ccccn1)/c1cccnc1 — within 1.5-fold, 40.5 µM
- COc1ccc(/C=N/Nc2cc(C)nc3c(C)cccc23)cc1 — 2.3-fold higher, 80.6 µM
- Cc1ccc(C(C[N+](=O)[O-])c2c(N)n(C)c(=O)n(C)c2=O)cc1 (stereo not given) — 1.8-fold higher, 62.3 µM
- Cc1ccc(C)c(/C=C/C(=O)c2ccccc(=O)c2O)c1 — 2.6-fold higher, 89.4 µM
- Oc1ccc(Cl)cc1Cc1cc(Cl)ccc1O — within 1.5-fold, 36.6 µM
- C/C(=N\Nc1nc2ccccc2[nH]1)c1ccccn1 — within 1.5-fold, 34.3 µM
- CC[n+]1c(/C=C/c2ccc(N(C)C)cc2)ccc2ccccc21 — 1.6-fold higher, 54.8 µM
- N=c1n(CC(=O)c2ccc(Br)s2)c2ccccc2n1Cc1ccccc1 — 2-fold higher, 68.3 µM
- O=C1NN(c2ccccc2)C(=O)/C1=C\c1coc2ccc(O)cc2c1=O — 3.8-fold higher, 132 µM
- NC1=NC[C@H](Cc2ccc(O)cc2)N1CCC12CC3CC(CC(C3)C1)C2 — 2.2-fold higher, 75.3 µM
- CCCCOc1ccc(Cc2cnc(N)nc2N)cc1 — 2.6-fold higher, 90.8 µM
- CNc1cc(Cl)c2nonc2c1[N+](=O)[O-] — within 1.5-fold, 37 µM
- CCCOc1ccc(C(=O)NC(=S)N2CCN(c3cc4c(cc3F)c(=O)c(C(=O)O)cn4CC)CC2)cc1 — within 1.5-fold, 24.3 µM
- O=C1C=C(N2CCOCC2)c2ccccc2C1=O — within 1.5-fold, 51.2 µM
- Oc1cccc(Nc2nc(NCC3CCCO3)c3ccccc3n2)c1 (stereo not given) — 4.1-fold higher, 140 µM
- CCCCCOc1ccc(CSC(=N)N)cc1[N+](=O)[O-] — 2.4-fold higher, 82.7 µM
- CCCCCCCCCCCCCCCC[n+]1cccc(C(=O)N(CC)CC)c1 — within 1.5-fold, 25.3 µM
- O=C(/C=C/c1ccccc1Cl)c1ccccc(=O)c1O — within 1.5-fold, 40.1 µM
- O=[N+]([O-])c1ccc(CNC2CCCc3ccccc32)cc1 (stereo not given) — 2.3-fold higher, 81 µM
- CCCCCCCCCCCCCCCCn1cc[n+](C)c1 — 2-fold lower, 17.1 µM

`NC(=NCCCCCCN=C(N)/N=C(\N)Nc1ccc(Cl)cc1)/N=C(\N)Nc1ccc(Cl)cc1` was tested, and the IC50 was 8.29 µM and 10.1 µM and 14.9 µM.
